In brackets after ≈: the same amount, converted by molar mass. Activity calls are given as the source filed them. The rule behind the calls is not given here.
How the values were obtained:
Escherichia coli [1] = experiment: Susceptibility of Escherichia coli K12 MG1655 by agar dilution method; assay type: functional
Escherichia coli [2] = experiment: Susceptibility of Escherichia coli K12 MG1655 in presence of 10 mM glutathione by agar dilution method relative to control; assay type: functional
Escherichia coli [3] = experiment: Increase in ROS levels in Escherichia coli K12 MG1655 assessed as ratio of ROS with antibiotic to ROS without antibiotic; assay type: functional
Escherichia coli [4] = experiment: Decrease in sensitivity of Escherichia coli K12 MG1655 assessed as reduction in zone of inhibition in presence of 10 mM glutathione by disk diffusion method; assay type: functional, organism-based
Escherichia coli [5] = experiment: Decrease in sensitivity of Escherichia coli K12 MG1655 assessed as reduction in zone of inhibition in presence of 10 mM ascorbic acid by disk diffusion method; assay type: functional, organism-based
Escherichia coli [6] = experiment: Antibacterial activity against Escherichia coli K12 MG1655 in presence of ascorbic acid by agar dilution method relative to control; assay type: functional
Escherichia coli [7] = experiment: Antibacterial activity against Escherichia coli K12 W3110; assay type: functional
Escherichia coli [8] = experiment: Antibacterial activity against Escherichia coli K12 XL1 Blue; assay type: functional
Escherichia coli [9] = experiment: Antibacterial activity against Escherichia coli K12 DH5alpha; assay type: functional
Escherichia coli [10] = experiment: Antibacterial activity against Escherichia coli K12 W3110 in presence of 10 mM ascorbic acid; assay type: functional
Escherichia coli [11] = experiment: Antibacterial activity against Escherichia coli K12 XL1 Blue in presence of 10 mM ascorbic acid; assay type: functional
Escherichia coli [12] = experiment: Antibacterial activity against Escherichia coli K12 DH5alpha in presence of 10 mM ascorbic acid; assay type: functional

Row | Compound | MIC (Escherichia coli [1]) [µg/mL] | MIC (Escherichia coli [2]) [µg/mL] | Ratio (Escherichia coli [3]) | also measured
1 | O=C(N[C@H](CO)[C@H](O)c1ccc([N+](=O)[O-])cc1)C(Cl)Cl [CHLORAMPHENICOL] | 8 (≈ 24.8 µM) | 4 |  | 
2 | O=C(O)c1cn(C2CC2)c2cc(N3CCNCC3)c(F)cc2c1=O [CIPROFLOXACIN] |  |  | 1.1 | 
3 | NC[C@H]1O[C@H](O[C@H]2[C@H](O)[C@@H](O[C@H]3O[C@H](CO)[C@@H](O)[C@H](N)[C@H]3O)[C@H](N)C[C@@H]2N)[C@H](O)[C@@H](O)[C@@H]1O [KANAMYCIN] | 6 (≈ 12.4 µM) | > 250 | 0.87 | 
4 | CC1=CC(=O)c2ccccc2C1=O [MENADIONE] |  |  | 2.02 | 
5 | CN[C@@H]1[C@H](O)[C@H](NC)[C@H]2O[C@@]3(O)C(=O)C[C@@H](C)O[C@H]3O[C@@H]2[C@H]1O [SPECTINOMYCIN] | 20 (≈ 60.2 µM) | > 300 |  | 
6 | CN[C@@H]1[C@H](O[C@H]2[C@H](O[C@H]3[C@H](O)[C@@H](O)[C@H](N=C(N)N)[C@@H](O)[C@@H]3N=C(N)N)O[C@@H](C)[C@]2(O)C=O)O[C@@H](CO)[C@H](O)[C@H]1O [STREPTOMYCIN] | 8 (≈ 13.8 µM) | > 250 | 0.78 | Activity (Escherichia coli [4]): Active; Activity (Escherichia coli [5]): Active; MIC (Escherichia coli [6]): 20 µg/mL; MIC (Escherichia coli [7]): 4 µg/mL (≈ 6.88 µM); MIC (Escherichia coli [8]): 4 µg/mL (≈ 6.88 µM); MIC (Escherichia coli [9]): 4 µg/mL (≈ 6.88 µM); MIC (Escherichia coli [10]): > 8 µg/mL; MIC (Escherichia coli [11]): > 8 µg/mL; MIC (Escherichia coli [12]): > 8 µg/mL
7 | CN(C)[C@@H]1C(O)=C(C(N)=O)C(=O)[C@@]2(O)C(O)=C3C(=O)c4c(O)cccc4[C@@](C)(O)[C@H]3C[C@@H]12 [TETRACYCLINE] | 4 (≈ 9 µM) | 4 | 0.96 | 
8 | GENTAMICIN | 2 | > 200 | 1 | 
